Assay [1] deals with model antibody produced by CHO cells. Here is the method: (§1) The effect of putrescine on antibody glycoforms of a model antibody produced by CHO cells was analyzed. CHO cells genetically engineered to express the antibody were grown initially in base media (Power CHO2, Catalog #BE15-771, Lonza Inc., Allendale, N.J.). Cells were then inoculated (at 0.55×10^6 cells/mL) into a chemically defined medium containing 0.17 mg/L, 0.35 mg/L, or […] putrescine 2HCl and cultured as a batch culture in TPP tubespins for 7 days.
(§2) Cell viability was assessed on day 4 using a hemocytometer using cells stained with trypan blue. Titer was determined from the day-7 cultures by protein A affinity HPLC. Relative quantitation of each glycoform was performed on purified protein using Chip ToF. Chip ToF uses mass spectrometry to measure the extracted ion chromatogram (XIC) area for each species after chip-based enzymatic removal and purification of N-glycans, relative to the total XIC for detected species (see, e.g., mAb-Glyco Chip Kit, Agilent Technologies).

Assay [2] has as its system CHO cells genetically engineered to express the antibody. To be noted: for Product titer: day-7 batch culture; for viable cell density (VCD): day 4. How it is done:
as §1, §2

Setting [3] is: with increasing levels of putrescine, FIG. 4.
The mark [4] stands for this setting: with increasing putrescine, FIG. 3.

Where two headings read alike, the source gives them in different places.

As for `NCCCCN` [putrescine], in assay [1] (0.52 mg/L putrescine compared to 0.17 mg/L putrescine, FIG. 3), the “relative change in G0F, G1F, and G2F” value was “about 10%”. The “putrescine level above which effect on fucosylated glycans saturates” value in assay [1] (non-linear relationship, FIG. 2) is “above 0.35 mg/mL”. In addition, the “fraction of fucosylated glycans” value in assay [1] (with increasing levels of putrescine (0.17-0.52 mg/L), FIG. 2) is recorded as “increased”. Also, the high mannose glycans entry in assay [1] (setting [3]) was “reduced”. The “level of sialylated glycans” value in assay [1] (setting [3]) is recorded as “increased”. Moreover, the level of galactosylation result in assay [1] (with increasing putrescine) is given as “increase”. For the same compound, the “levels of G0F” value in assay [1] (setting [4]) is “reduced”. Besides, in assay [1] (setting [4]), the “levels of G1F” value was “increased”. For the same compound, the “levels of G2F” value in assay [1] (setting [4]) is reported as “increased”. For the same compound, the Product titer in assay [2] (0.17 mg/L putrescine in medium) is listed as 40 mg/L; in assay [2] (0.35 mg/L putrescine in medium), 58 mg/L; in assay [2] (0.52 mg/L putrescine in medium), 73 mg/L. Moreover, the figures for the “viable cell density (VCD)” value in assay [2] (0.17 mg/L putrescine), in assay [2] (0.35 mg/L putrescine) and in assay [2] (0.52 mg/L putrescine) were 1.5×10^6 cells/mL, 1.8×10^6 cells/mL and 2.2×10^6 cells/mL, respectively.

The record behind these values is patent US10144944B2, “Methods of cell culture” (Momenta Pharmaceuticals, Inc., priority 2013, dated 2018).
